Measured values published in patent publication US20240116985A1, “STAPLED PEPTIDES AND METHODS THEREOF” (priority 2020, published 2024).
Where two headings read alike, the source gives them in different places.

What was measured:
[1] = biological target: T1, full-length beta-Catenin (Uniprot ID P35222) (Homo sapiens, UniProt P35222); test: Fluorescence polarization IC50 (beta-catenin / 5FAM-TCF4 10-53 competition); format: binding; details: fluorescence polarization; read-out: beta-Catenin FP IC50
T1 construct: 10 nM full-length beta-Catenin (Uniprot ID P35222)
T1 sequence (P35222 1-781): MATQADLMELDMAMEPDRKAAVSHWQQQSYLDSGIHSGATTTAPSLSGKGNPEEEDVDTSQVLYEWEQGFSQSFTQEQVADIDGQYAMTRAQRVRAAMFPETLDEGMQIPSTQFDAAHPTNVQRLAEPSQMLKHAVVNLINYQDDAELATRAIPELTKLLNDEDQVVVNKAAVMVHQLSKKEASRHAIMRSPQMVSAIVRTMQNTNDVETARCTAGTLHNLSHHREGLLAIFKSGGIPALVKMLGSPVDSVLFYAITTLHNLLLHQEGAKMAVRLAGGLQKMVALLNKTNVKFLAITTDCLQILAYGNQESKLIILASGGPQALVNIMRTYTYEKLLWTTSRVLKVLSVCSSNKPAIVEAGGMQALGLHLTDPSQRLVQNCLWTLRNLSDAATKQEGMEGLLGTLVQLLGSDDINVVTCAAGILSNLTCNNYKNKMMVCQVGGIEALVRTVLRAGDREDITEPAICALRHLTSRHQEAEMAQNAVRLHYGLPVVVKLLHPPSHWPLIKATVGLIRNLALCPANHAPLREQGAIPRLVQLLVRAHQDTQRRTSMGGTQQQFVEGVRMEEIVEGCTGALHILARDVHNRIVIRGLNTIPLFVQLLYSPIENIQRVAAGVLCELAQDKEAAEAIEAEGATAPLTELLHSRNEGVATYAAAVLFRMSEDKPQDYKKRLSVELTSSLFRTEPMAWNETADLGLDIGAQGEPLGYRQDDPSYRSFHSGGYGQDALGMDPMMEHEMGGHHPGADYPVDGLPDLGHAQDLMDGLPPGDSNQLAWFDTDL

[2] = biological target: T2, beta-catenin/TCF4 engagement (Homo sapiens, UniProt P35222); test: Nano-BRET target engagement assay (B-cat-Halo & TCF4-Luc in HEK293 cells); format: cell-based; details: read-out: NanoBRET Abs IC50
T2 construct: expressed in transfected cells; host or cells: HEK293
T2 sequence (P35222 1-781): T1 sequence (P35222 1-781)

Compound	IC50 [1] [nM]	IC50 ([2]; absolute IC50) [nM]	IC50 [2] [nM]
CC(=O)N1CCC[C@]12CC=CCCCC1(CCCC=CCCCOC(=O)N3CC[C@@](C(=O)N[C@@H](Cc4ccccc4Cl)C(=O)N[C@@H](Cc4csc5ccccc45)C(=O)N[C@@H](CO)C(N)=O)(C3)NC(=O)[C@H](CC(C)C)NC(=O)[C@H](Cc3ccccc3)NC(=O)[C@H](C)NC(=O)[C@H](C)NC(=O)[C@H](Cc3cc(C(=O)O)cc(C(F)(F)F)c3)NC(=O)[C@H](CC(=O)O)NC1=O)NC(=O)[C@H](CC(C)(C)C)NC(=O)[C@H](CC(=O)O)NC2=O (stereo partly drawn) [I-2210, Ac-PL3-Asp-Npg-B5-Asp-5F3Me3COOHF-Ala-Ala-Phe-Leu-PyrS2-2C1F-BztA-Ser-NH2]	128	12400	–
CC(=O)N1CCC[C@]12CC=CCCCC1(CCCC=CCCCOC(=O)N3CC[C@@](C(=O)N[C@@H](Cc4ccccc4Cl)C(=O)N[C@@H](Cc4csc5ccccc45)C(=O)N[C@@H](CC(N)=O)C(N)=O)(C3)NC(=O)[C@H](CO)NC(=O)[C@H](Cc3ccccc3)NC(=O)[C@H](C)NC(=O)[C@H](C)NC(=O)[C@H](Cc3cccc(C(=O)O)c3)NC(=O)[C@H](CC(=O)O)NC1=O)NC(=O)[C@H](CC(C)(C)C)NC(=O)[C@H](CC(=O)O)NC2=O (stereo partly drawn) [I-2039, Ac-PL3-Asp-Npg-B5-Asp-3COOHF-Ala-Ala-Phe-Ser-PyrS2-2C1F-BztA-Asn-NH2]	9	–	10500
CC(=O)N1CCC[C@]12CC=CCCCC1(CCCC=CCCCOC(=O)N3CC[C@@](C(=O)N[C@@H](Cc4ccsc4)C(=O)N[C@@H](Cc4csc5ccccc45)C(=O)N[C@@H](CCC(N)=O)C(N)=O)(C3)NC(=O)[C@H](CC(N)=O)NC(=O)[C@H](Cc3ccccc3)NC(=O)[C@H](C)NC(=O)[C@H](C)NC(=O)[C@H](CN(CC(=O)O)Cc3ccccc3)NC(=O)[C@H](CC(=O)O)NC1=O)NC(=O)[C@H](CC(C)(C)C)NC(=O)[C@H](CC(=O)O)NC2=O (stereo partly drawn) [I-1635, Ac-PL3-Asp-Npg-B5-Asp-[Bn]GA-Ala-Ala-Phe-Asn-PyrS2-3Thi-BztA-Gln-NH2]	7	20600	–
CC(=O)N1CCC[C@]12CC=CCCCC1(CCCC=CCCCOC(=O)N3CC[C@@](C(=O)N[C@@H](Cc4ccsc4)C(=O)N[C@@H](Cc4csc5ccccc45)C(=O)N[C@@H](CCC(N)=O)C(N)=O)(C3)NC(=O)[C@H](CC(C)C)NC(=O)[C@H](Cc3ccccc3)NC(=O)[C@H](C)NC(=O)[C@H](C)NC(=O)[C@H](Cn3cc(-c4ccccc4C(=O)O)nn3)NC(=O)[C@H](CC(=O)O)NC1=O)NC(=O)[C@H](CC(C)(C)C)NC(=O)[C@H](CC(=O)O)NC2=O (stereo partly drawn) [I-2086, Ac-PL3-Asp-Npg-B5-Asp-[2COOHPh]TriAzDap-Ala-Ala-Phe-Leu-PyrS2-3Thi-BztA-Gln-NH2]	12	–	16400
CCCc1cn(CCCC[C@H](NC(=O)[C@H](Cc2csc3ccccc23)NC(=O)[C@H](Cc2ccsc2)NC(=O)[C@]23CCN(C2)C(=O)OCCCC=CCCCC2(CCCC=CC[C@]4(CCCN4C(C)=O)C(=O)N[C@@H](CC(=O)O)C(=O)N[C@@H](CC(C)(C)C)C(=O)N2)C(=O)N[C@@H](CC(=O)O)C(=O)N[C@@H](CC(=O)O)C(=O)N[C@@H](C)C(=O)N[C@@H](C)C(=O)N[C@@H](Cc2ccccc2)C(=O)N[C@@H](CC(C)C)C(=O)N3)C(N)=O)nn1 (stereo partly drawn) [I-2375, Ac-PL3-Asp-Npg-B5-Asp-Asp-Ala-Ala-Phe-Leu-PyrS2-3Thi-BztA-[3C]TriAzLys-NH2]	5	13500	–
CC(=O)N1CCC[C@]12CC=CCCCC1(CCCC=CCCCOC(=O)N3CC[C@@](C(=O)N[C@@H](Cc4ccsc4)C(=O)N[C@@H](Cc4csc5ccccc45)C(=O)N[C@@H](CCC(N)=O)C(N)=O)(C3)NC(=O)[C@H](CCC(=O)N3CC[C@@H](N(C)C)C3)NC(=O)[C@H](Cc3ccccc3)NC(=O)[C@H](C)NC(=O)[C@H](C)NC(=O)[C@H](CN(CC(=O)O)CC(F)(F)F)NC(=O)[C@H](CC(=O)O)NC1=O)NC(=O)[C@H](CC(C)(C)C)NC(=O)[C@H](CC(=O)O)NC2=O (stereo partly drawn) [I-1939, Ac-PL3-Asp-Npg-B5-Asp-TfeGA-Ala-Ala-Phe-[RDMAPyr]GlnR-PyrS2-3Thi-BztA-Gln-NH2]	10	–	20700
CC(=O)N1CCC[C@]12CC=CCCCC1(CCCC=CCCCOC(=O)N3CC[C@@](C(=O)N[C@@H](Cc4ccsc4)C(=O)N[C@@H](Cc4csc5ccccc45)C(=O)N[C@@H](CCC(N)=O)C(N)=O)(C3)NC(=O)[C@H](CC(C)C)NC(=O)[C@H](Cc3ccccc3)NC(=O)[C@H](C)NC(=O)[C@H](C)NC(=O)[C@H](CN(CC(=O)O)C(=O)CN3CCN(C)CC3)NC(=O)[C@H](CC(=O)O)NC1=O)NC(=O)[C@H](CC(C)(C)C)NC(=O)[C@H](CC(=O)O)NC2=O (stereo partly drawn) [I-2240, Ac-PL3-Asp-Npg-B5-Asp-[MePipAc]GA-Ala-Ala-Phe-Leu-PyrS2-3Thi-BztA-Gln-NH2]	5	> 20000	–
CCCC[C@@H]1NC(=O)[C@H](CC(=O)O)NC(=O)[C@]2(CC=CCCCC3(CCCC=CCCCOC(=O)N4CC[C@@](C(=O)N[C@@H](Cc5ccsc5)C(=O)N[C@@H](Cc5csc6ccccc56)C(=O)N[C@@H](CCC(N)=O)C(N)=O)(C4)NC(=O)[C@H](CCCC)NC(=O)[C@H](Cc4ccccc4)NC(=O)[C@H](C)NC(=O)[C@H](C)NC(=O)[C@H](Cc4cccc(C(=O)O)c4)NC(=O)[C@H](CC(=O)O)NC3=O)NC1=O)CCCN2C(C)=O (stereo partly drawn) [I-1408, Ac-PL3-Asp-nLeu-B5-Asp-3COOHF-Ala-Ala-Phe-nLeu-PyrS2-3Thi-BztA-Gln-NH2]	33	6000	–
CC(=O)N1CCC[C@]12CC=CCCCC1(CCCC=CCCCOC(=O)N3CC[C@@](C(=O)N[C@@H](Cc4ccsc4)C(=O)N[C@@H](Cc4csc5ccccc45)C(=O)N[C@@H](CCC(N)=O)C(N)=O)(C3)NC(=O)[C@H](CC(C)C)NC(=O)[C@H](Cc3ccccc3)NC(=O)[C@H](C)NC(=O)[C@H](C)NC(=O)[C@H](Cc3cn(CC(=O)O)c4ccccc34)NC(=O)[C@H](CC(=O)O)NC1=O)NC(=O)[C@H](CC(C)(C)C)NC(=O)[C@H](CC(=O)O)NC2=O (stereo partly drawn) [I-1445, Ac-PL3-Asp-Npg-B5-Asp-1AcAW-Ala-Ala-Phe-Leu-PyrS2-3Thi-BztA-Gln-NH2]	13	11100	–
CC(=O)N1CCC[C@]12CC=CCCCC1(CCCC=CCCCCCC[C@@](C)(C(=O)N[C@@H](Cc3ccccc3)C(=O)N[C@@H](Cc3csc4ccccc34)C(=O)N[C@@H](CCC(N)=O)C(N)=O)NC(=O)[C@H](CCO)NC(=O)[C@H](Cc3ccccc3)NC(=O)[C@H](C)NC(=O)[C@H](C)NC(=O)[C@H](CCC(=O)O)NC(=O)[C@H](CC(=O)O)NC1=O)NC(=O)[C@H](CCCCN)NC(=O)[C@H](CC(=O)O)NC2=O (stereo partly drawn) [I-1554, Ac-PL3-Asp-Lys-B5-Asp-Glu-Ala-Ala-Phe-Hse-S8-Phe-BztA-Gln-NH2]	63	> 20000	–
CC(=O)N1CCC[C@]12CC=CCCCC1(CCCC=CCCCOC(=O)N3CC[C@@](C(=O)N[C@@H](Cc4ccsc4)C(=O)N[C@@H](Cc4csc5ccccc45)C(=O)N[C@@H](Cc4c[nH]c5ccccc45)C(N)=O)(C3)NC(=O)[C@H](CC(C)C)NC(=O)[C@H](Cc3ccccc3)NC(=O)[C@H](C)NC(=O)[C@H](C)NC(=O)[C@H](CC(=O)O)NC(=O)[C@H](CC(=O)O)NC1=O)NC(=O)[C@H](CC(C)(C)C)NC(=O)[C@H](CC(=O)O)NC2=O (stereo partly drawn) [I-1497, Ac-PL3-Asp-Npg-B5-Asp-Asp-Ala-Ala-Phe-Leu-PyrS2-3Thi-BztA-Trp-NH2]	50	11400	–
CC(=O)N1CCC[C@]12CC=CCCCC1(CCCC=CCCCCCC[C@@](C)(C(=O)N[C@@H](Cc3ccccc3)C(=O)N[C@@H](Cc3csc4ccccc34)C(=O)N[C@@H](CCC(N)=O)C(N)=O)NC(=O)[C@H](CCO)NC(=O)[C@H](Cc3ccccc3)NC(=O)[C@H](C)NC(=O)[C@H](C)NC(=O)[C@H](CCC(=O)O)NC(=O)[C@H](CC(=O)O)NC1=O)NC(=O)[C@H](CCC(C)C)NC(=O)[C@H](CC(=O)O)NC2=O (stereo partly drawn) [I-1537, Ac-PL3-Asp-Hleu-B5-Asp-Glu-Ala-Ala-Phe-Hse-S8-Phe-BztA-Gln-NH2]	31	13900	–
CC(=O)N1CCC[C@]12CC=CCCCC1(CCCC=CCCCOC(=O)N3CCC(C(=O)N[C@@H](Cc4ccccc4C(F)(F)F)C(=O)N[C@@H](Cc4csc5ccccc45)C(=O)N[C@@H](CCC(N)=O)C(N)=O)(CC3)NC(=O)[C@H](CC(C)C)NC(=O)[C@H](Cc3ccccc3)NC(=O)[C@H](C)NC(=O)[C@H](C)NC(=O)[C@H](Cc3cccc(C(=O)O)c3)NC(=O)[C@H](CC(=O)O)NC1=O)NC(=O)[C@H](CC(C)(C)C)NC(=O)[C@H](CC(=O)O)NC2=O (stereo partly drawn) [I-2582, Ac-PL3-Asp-Npg-B5-Asp-3COOHF-Ala-Ala-Phe-Leu-SPip2-2F3MeF-BztA-Gln-NH2]	263	–	> 20000
